Tests used:
Experiment in all cases: Bliss excess, mean over the matrix (fraction); higher = more synergy
[1] = system: MOLM-13 (Acute Myeloid Leukemia)
Outline: (§1)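 Cell lines in DMEM/F12 or RPMI with 10% FBS were plated in 1536-well plates, held 24 hours at 37°C, 5% CO2, then given two-drug dose matrices for 72 hours (DMSO typically 0.2%). Viability was read by CellTiter-Glo 2.0 luminescence and scaled as inhibition from 0 (vehicle wells) to 1 (blank wells). Combination Emax is the second-highest inhibition in the matrix; Bliss excess is observed combination effect minus expected EA + EB − EA·EB, EA and EB being single-agent effects.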

RD (Rhabdomyosarcoma) = system: RD (Rhabdomyosarcoma)
Outline: as §1

[2] = system: NCCIT (Other Solid Carcinomas)
Outline: as §1

[3] = system: CHSA8926 (Chondrosarcoma)
Outline: as §1

[4] = system: H9 (T-Cell Non-Hodgkin's Lymphoma)
Outline: as §1

[5] = system: HCC1419 (Breast Carcinoma)
Outline: as §1

M059J (Glioblastoma) = system: M059J (Glioblastoma)
Outline: as §1

[6] = system: JHH-4 (Hepatocellular Carcinoma)
Outline: as §1

[7] = system: NCI-H3122 (Lung Adenocarcinoma)
Outline: as §1

[8] = system: DAN-G (Pancreatic Carcinoma)
Outline: as §1

[9] = system: KMS-12-BM (Plasma Cell Myeloma)
Outline: as §1

[10] = system: NCI-H526 (Small Cell Lung Carcinoma)
Outline: as §1

[11] = system: SK-GT-2 (Gastric Carcinoma)
Outline: as §1

[12] = system: SNU-398 (Hepatocellular Carcinoma)
Outline: as §1

[13] = system: DMS-114 (Small Cell Lung Carcinoma)
Outline: as §1

[14] = system: CW-2 (Colorectal Carcinoma)
Outline: as §1

SJSA-1 (Osteosarcoma) = system: SJSA-1 (Osteosarcoma)
Outline: as §1

[15] = system: ST486 (Burkitt's Lymphoma)
Outline: as §1

[16] = system: VMRC-RCZ (Kidney Carcinoma)
Outline: as §1

[17] = system: HCC1187 (Breast Carcinoma)
Outline: as §1

SMILES | Bliss excess [1] | Bliss excess (RD (Rhabdomyosarcoma)) | Bliss excess [2] | Bliss excess [3] | Bliss excess [4] | Bliss excess [5] | Bliss excess (M059J (Glioblastoma)) | Bliss excess [6] | Bliss excess [7] | Bliss excess [8] | Bliss excess [9] | Bliss excess [10] | Bliss excess [11] | Bliss excess [12] | Bliss excess [13] | Bliss excess [14] | Bliss excess (SJSA-1 (Osteosarcoma)) | Bliss excess [15] | Bliss excess [16] | Bliss excess [17]
Cn1cnc2c(F)c(Nc3ccc(Br)cc3Cl)c(C(=O)NOCCO)cc21 [Selumetinib] + CCN(CCO)CCCOc1ccc2c(Nc3cc(CC(=O)Nc4cccc(F)c4)[nH]n3)ncnc2c1 [AZD2811] (first compound max 10 µM, 7x7, partner max 1 µM) | 0.0359 | -0.0016 | -0.0657 | -0.0593 | -0.0129 | -0.0451 | -0.033 | -0.0412 | 0.0093 | 0.0445 | 0.0832 | -0.017 | -0.0443 | 0.0026 | -0.0166 | -0.0142 | -0.0705 | 0.0872 | -0.0501 | -0.0374
Cc1c2c(nn1C)CSCc1cc(n(C)n1)CSc1cc(c3ccccc3c1)OCCCc1c(C(=O)O)n(C)c3c-2c(Cl)ccc13 [AZD5991] + C=CCn1c(=O)c2cnc(Nc3ccc(N4CCN(C)CC4)cc3)nc2n1-c1cccc(C(C)(C)O)n1 [AZD1775] (first compound max 1 µM, partner max 1 µM) | -0.0021 | 0.04 | -0.0113 | -0.0155 | -0.0337 | -0.106 | -0.0191 | 0.0308 | -0.058 | 0.0424 | -0.0082 | -0.0063 | -0.0033 | 0.0149 | -0.0295 | 0.04 | 0.0115 | -0.0067 | 0.0212 | -0.0342
CCN(CCO)CCCOc1ccc2c(Nc3cc(CC(=O)Nc4cccc(F)c4)[nH]n3)ncnc2c1 [AZD2811] + C=CCn1c(=O)c2cnc(Nc3ccc(N4CCN(C)CC4)cc3)nc2n1-c1cccc(C(C)(C)O)n1 [AZD1775] (first compound max 1 µM, partner max 1 µM) | -0.0698 | -0.0222 | -0.0037 | 0.0032 | 0.0252 | -0.0545 | -0.0176 | 0.0015 | -0.0512 | -0.0144 | 0.122 | -0.0226 | 0.0008 | 0.0295 | -0.0129 | -0.0169 | -0.0109 | -0.0925 | -0.0512 | -0.0086
CN(CCO)CC[C@H](CSc1ccccc1)Nc1ccc(S(=O)(=O)NC(=O)c2ccc(N3CCC([C@@H](O)c4ccccc4-c4ccc(Cl)cc4)CC3)cc2)cc1S(=O)(=O)C(F)(F)F [AZD4320] + C[C@@H](Nc1cc(F)cc(F)c1)c1cc(C(=O)N(C)C)cc2c(=O)cc(N3CCOCC3)oc12 [AZD8186] (first compound max 1 µM, 7x7, partner max 3 µM) | 0.0619 | 0.0328 | 0.0346 | 0.0889 | 0.063 | 0.0282 | 0.0316 | 0.0282 | 0.0005 | 0.0484 | 0.0652 | 0.0434 | 0.0296 | 0.0201 | -0.0096 | -0.0073 | -0.0489 | 0.0176 | -0.0096 | 0.0582
Cc1cc2ncnn2cc1Nc1ncc2c(n1)n(C1CCOCC1)c(=O)n2C [AZD7648] + O=C(c1cc(Cc2n[nH]c(=O)c3ccccc23)ccc1F)N1CCN(C(=O)C2CC2)CC1 [Olaparib] (first compound max 10 µM, 7x7, partner max 10 µM) | -0.134 | -0.0508 | -0.0112 | -0.0511 | -0.0049 | -0.066 | -0.097 | -0.0213 | -0.0505 | -0.0568 | 0.027 | -0.0129 | -0.0297 | -0.0381 | -0.0092 | -0.0201 | -0.036 | 0.0048 | -0.0546 | -0.0092
COc1cccc(OCCCN)c1-c1cc(Nc2cnc(C#N)cn2)n[nH]1 [Prexasertib] + C=CCn1c(=O)c2cnc(Nc3ccc(N4CCN(C)CC4)cc3)nc2n1-c1cccc(C(C)(C)O)n1 [AZD1775] (first compound max 1 µM, partner max 1 µM) | 0.036 | 0.0732 | 0.0561 | -0.0416 | 0.0958 | -0.0136 | 0.178 | 0.0703 | 0.124 | -0.0093 | 0.0595 | 0.0502 | 0.0286 | 0.0254 | 0.0129 | 0.0224 | -0.0243 | 0.0276 | -0.02 | 0.102
C[C@@H](c1ccc2nccn2c1)n1nnc2ncc(-c3cnn(C)c3)nc21 [Savolitinib] + CC1(C)CCC(CN2CCN(c3ccc(C(=O)NS(=O)(=O)c4ccc(NCC5CCOCC5)c([N+](=O)[O-])c4)c(Oc4cnc5[nH]ccc5c4)c3)CC2)=C(c2ccc(Cl)cc2)C1 [Venetoclax] (first compound max 1 µM, 7x7, partner max 1 µM) | 0.0025 | -0.0598 | -0.0394 | 0.0023 | -0.0453 | -0.0225 | -0.0321 | 0.0006 | -0.0394 | -0.09 | 0.0253 | 0.0111 | -0.0144 | -0.057 | 0.0131 | -0.0459 | -0.0775 | -0.0481 | -0.0374 | -0.0494
Cc1cc2ncnn2cc1Nc1ncc2c(n1)n(C1CCOCC1)c(=O)n2C [AZD7648] + CN(C)CCCOc1ccc(-c2ccc3ncc4c(c3c2)n(C2CCOCC2)c(=O)n4C)cn1 [AZD0156] (first compound max 10 µM, 7x7, partner max 1 µM) | 0.0085 | -0.0142 | -0.0105 | 0.0091 | 0.0458 | -0.0515 | 0.0149 | 0.0025 | -0.006 | -0.0168 | 0.0032 | 0.0429 | -0.0011 | -0.0273 | -0.0268 | -0.0088 | -0.0385 | -0.0071 | -0.0314 | -0.0086
CN(C)CCCOc1ccc(-c2ccc3ncc4c(c3c2)n(C2CCOCC2)c(=O)n4C)cn1 [AZD0156] + C=CCn1c(=O)c2cnc(Nc3ccc(N4CCN(C)CC4)cc3)nc2n1-c1cccc(C(C)(C)O)n1 [AZD1775] (first compound max 1 µM, partner max 1 µM) | -0.0885 | -0.0377 | 0.0278 | -0.106 | -0.0167 | -0.0446 | -0.11 | -0.0065 | -0.0352 | -0.0064 | 0.0744 | -0.0258 | -0.0776 | -0.0887 | -0.0479 | -0.0106 | -0.0674 | 0.0097 | -0.0797 | -0.0117
CC1(C)CCC(CN2CCN(c3ccc(C(=O)NS(=O)(=O)c4ccc(NCC5CCOCC5)c([N+](=O)[O-])c4)c(Oc4cnc5[nH]ccc5c4)c3)CC2)=C(c2ccc(Cl)cc2)C1 [Venetoclax] + C1CN(CCC1(C(=O)N[C@@H](CCO)C2=CC=C(C=C2)Cl)N)C3=NC=NC4=C3C=CN4 [Capivasertib] (first compound max 1 µM, 7x7, partner max 3 µM) | 0.0074 | -0.0226 | -0.0285 | -0.0364 | -0.02 | -0.057 | 0.0099 | -0.054 | -0.0592 | -0.0689 | 0.0559 | -0.0095 | -0.0211 | -0.0081 | -0.0467 | -0.0259 | -0.0509 | -0.0348 | -0.0236 | -0.0227
